The test has as its system HN-13-0014 xenograft. Briefly: HN-13-0014 xenograft model, Compound 1 and radiation. Type of test: in vivo, mice. The source says: The HN-13-0014 xenograft model is a human head and neck primary tumor model. Approximately nine week old female BALB/c nude (Shanghai Sino-British SIPPR/BK Laboratory Animal Co., LTD.) mice were implanted subcutaneously with approximate 30 mm^3 HN-13-0014 tumor slices in the right flank. When the mean tumor volume reached approximately 162 mm^3, the animals were randomized into 10 treatment groups (n=8/group).
Compound 1 [((1R,2R,3S,4R)-2,3-dihydroxy-4-(2-(3-(trifluoromethylthio) ? phenyl)pyrazolo[1,5-a]pyrimidin-7-ylamino)cyclopentyl)methyl sulfamate] is formulated in 10% HPbCD in sterile water and administered intravenously on a BIW (twice/week schedule; Monday and Thursday, i.e. days 0, 3, 7, 10, 14, 17) for 3 weeks in the HN-13-0014 and LU-01-0030 (first study) models. Compound 1 formulation was prepared weekly and stored at room temperature in the dark.
Beam-focused radiation was delivered using a either 1 or 2 Gray dosed on days 0, 1, 7, and 8 or on days 0, 3, 7, and 10 in the HN-13-0014 and LU-01-0030 (first study) models. A Rad Source RS-2000 X-ray irradiator was used for therapy (Rad Source). Before radiation, animals were anesthetized by i.p. injection using 1.0% sodium pentobarbital at 80 mg/kg (Vendor: Sigma). Focused radiation was applied to each mouse at 1 Gy/min.
Tumors were measured twice weekly using vernier calipers. Tumor volumes were calculated using the following formula: (0.5×[length×width^2]). Treatment groups and dosing/treatment schedules are indicated in Tables 1a, 2a, 3a, 4a, and 5a below. Tumor size and body weight are measured approximately twice a week for the duration of the study. Mice are euthanized when their tumor volume reached approximately 1000 mm^3. Tumor growth continued to be monitored after the dosing period in some studies. In Tables 1a, 2a, 3a, 4a, and 5a tumor volumes are shown for HN-13-0014 (day 21), LU-01-0030 (day 21), the second LU-01-0030 study (day 20), LU-01-0266 (day 20), ST-02-0004 (day 21) and FIN-13-0007 (day 24), respectively. Average tumor volume is reported as a function of time for selected groups of selected studies.
Measurements from day 0 to day 20, day 21 or day 24 are analyzed as specified in Tables below. All tumor volumes have a value of 1 added to them before log10 transformation. For each animal, the log tumor volume at day 0 is subtracted from the log tumor volume on the subsequent days. This difference vs. time is used to calculate an area under the curve (AUC) for each animal using the trapezoid rule. In instances when an animal in a treatment group is removed early from the study, the last observed tumor value is carried forward through all subsequent time points. The synergy score for the combination of agents A and B is defined as 100*(mean(AUCAB)−mean(AUCA)−mean(AUCB)+mean(AUCctl))/mean(AUCctl): where AUCAB, AUCA, AUCB, and AUCctl are the AUC values for animals in the combination group, the A group, the B group, and the control group, respectively. The standard error of the synergy score is computed based on the variation in the AUC values among the animals. […] If the P-value is above 0.05, then the combination is considered to be additive. If the P-value is below 0.05, and the synergy score is less than zero, then the combination is considered to be synergistic. If the P-value is below 0.05 and the synergy score was greater than zero, but the mean AUC for the combination was lower than the lowest mean AUC among the two single agent treatments, then the combination was sub-additive. If the P-value is below 0.05 and if the synergy score was greater than zero, and the mean AUC for the combination was greater than the mean AUC for at least one of the single agent treatments, then the combination was antagonistic.

Setting [1] is: 6.25 mg/kg Compound 1 + 2 Gy Radiation D0, 1, 7, 8.
The mark [2] stands for this setting: 6.25 mg/kg Compound 1 + 2 Gy Radiation D0, 3, 7, 10.
[3] abbreviates: 15 mg/kg Compound 1 + 2 Gy Radiation D0, 1, 7, 8.
Where [4] appears, read: 15 mg/kg Compound 1 + 2 Gy Radiation D0, 3, 7, 10.

Turning to `NS(=O)(=O)OC[C@H]1C[C@@H](Nc2ccnc3cc(-c4cccc(SC(F)(F)F)c4)nn23)[C@H](O)[C@@H]1O` [Compound 1, ((1R,2R,3S,4R)-2,3-dihydroxy-4-(2-(3-(trifluoromethylthio)phenyl)pyrazolo[1,5-a]pyrimidin-7-ylamino)cyclopentyl)methyl sulfamate], the Classification entry runs as follows: under setting [1], “Additive (If the P-value is above 0.05, then the combination is considered to be additive)”; under setting [2], “Additive (If the P-value is above 0.05, then the combination is considered to be additive)”; under setting [3], “Additive (If the P-value is above 0.05, then the combination is considered to be additive)”; under setting [4], “Additive (If the P-value is above 0.05, then the combination is considered to be additive)”. Further, the Synergy score under setting [1] is 8.6, the Synergy score under setting [2] was 7.7, the Synergy score under setting [3] amounted to 7.9 and the Synergy score under setting [4] came to 3.2. In addition, the “Tumor Volume Day 21” value is, setting by setting: (6.25 mg/kg Compound 1 IV BIWx3 + 2 Gy Radiation Beam D 0, 1, 7, 8) 392.7 mm^3; (6.25 mg/kg Compound 1 IV BIWx3 + 2 Gy Radiation Beam D 0, 3, 7, 10) 381.9 mm^3; (6.25 mg/kg Compound 1 IV BIWx3, single agent) 575.9 mm^3; (15 mg/kg Compound 1 IV BIWx3 + 2 Gy Radiation Beam D 0, 1, 7, 8) 372.4 mm^3; (15 mg/kg Compound 1 IV BIWx3 + 2 Gy Radiation Beam D 0, 3, 7, 10) 356.2 mm^3; (15 mg/kg Compound 1 IV BIWx3, single agent) 539.9 mm^3. Besides, the combination effect entry (Compound 1 with 2 Gy radiation) is given as “additive combination effect”. Also, where the note is “single agent, IV at 6.25 and 15 mg/kg BIW for 3 weeks”, the “anti-tumor activity compared to vehicle control” value is reported as “modest anti-tumor activity”.
